Test results: the NIST ThermoML archive (doi:10.1021/je700174h)

Key:
[1] = excess molar enthalpy (molar enthalpy of mixing); xn = mol fraction of the nth substance listed; conditions: 323.15 K, Liquid, Flow calorimetry
[2] = 323.15 K; Liquid; mass and volume balance equations

C=CCCCCCCCC [1-decene] + COC
[1]
Conditions	excess molar enthalpy [kcal/mol]
x2 = 0.1265	0.0311
x2 = 0.2342	0.0555
x2 = 0.3269	0.0716
x2 = 0.4076	0.0824
x2 = 0.4784	0.0877
x2 = 0.5411	0.0904
x2 = 0.5971	0.0902
x2 = 0.6472	0.0877
x2 = 0.6924	0.0838
x2 = 0.7335	0.0787
x2 = 0.7708	0.072
x2 = 0.805	0.065
x2 = 0.8363	0.0576
x2 = 0.8652	0.0495
x2 = 0.892	0.0415
x2 = 0.9167	0.0332
x2 = 0.9397	0.0247
x2 = 0.9612	0.0163
x2 = 0.9812	0.00806

c1ccccc1 [benzene]
Conditions	vapor or sublimation pressure [kPa]
[2]	35.47

CCCCCCCCCC [decane]
Conditions	vapor or sublimation pressure [kPa]
[2]	1.18

COC [dimethyl ether]
Conditions	vapor or sublimation pressure
[2]	1144.2 kPa [middle of 6 runs]

COC [dimethyl ether] + CCCCCCCCCC
[1]
Conditions	excess molar enthalpy [kcal/mol]
x1 = 0.1299	0.0567
x1 = 0.2396	0.0977
x1 = 0.3336	0.126
x1 = 0.4149	0.143
x1 = 0.486	0.152
x1 = 0.5487	0.156
x1 = 0.6043	0.156
x1 = 0.6541	0.151
x1 = 0.6989	0.145
x1 = 0.7393	0.137
x1 = 0.7761	0.126
x1 = 0.8097	0.114
x1 = 0.8405	0.102
x1 = 0.8687	0.0887
x1 = 0.8948	0.0747
x1 = 0.919	0.0603
x1 = 0.9414	0.0454
x1 = 0.9623	0.0305
x1 = 0.9818	0.015

COC [dimethyl ether] + CCCCCCCCCCCC
[1]
Conditions	excess molar enthalpy [kcal/mol]
x1 = 0.1484	0.067
x1 = 0.269	0.111
x1 = 0.3688	0.14
x1 = 0.4529	0.157
x1 = 0.5247	0.164
x1 = 0.5866	0.167
x1 = 0.6407	0.164
x1 = 0.6882	0.158
x1 = 0.7304	0.149
x1 = 0.7681	0.139
x1 = 0.8019	0.127
x1 = 0.8324	0.115
x1 = 0.8601	0.101
x1 = 0.8854	0.0873
x1 = 0.9085	0.0732
x1 = 0.9298	0.059
x1 = 0.9494	0.0441
x1 = 0.9675	0.0295
x1 = 0.9844	0.0145

COC [dimethyl ether] + Cc1ccccc1
[1]
Conditions	excess molar enthalpy [kcal/mol]
x1 = 0.0753	-0.0117
x1 = 0.1467	-0.0217
x1 = 0.2145	-0.0306
x1 = 0.279	-0.0378
x1 = 0.3403	-0.043
x1 = 0.3988	-0.0476
x1 = 0.4545	-0.0509
x1 = 0.5078	-0.0533
x1 = 0.5587	-0.054
x1 = 0.6075	-0.0545
x1 = 0.6541	-0.0535
x1 = 0.6989	-0.0516
x1 = 0.7419	-0.0492
x1 = 0.7831	-0.0454
x1 = 0.8228	-0.0406
x1 = 0.8609	-0.0351
x1 = 0.8976	-0.0282
x1 = 0.933	-0.0199
x1 = 0.9671	-0.0106

COC [dimethyl ether] + O
[1]
Conditions	excess molar enthalpy [kcal/mol]
x1 = 0.0137	-0.0315
x1 = 0.0363	-0.0758
x1 = 0.0808	-0.13
x1 = 0.1366	-0.154
x1 = 0.2087	-0.131
x1 = 0.3054	-0.0954
x1 = 0.4418	-0.0449
x1 = 0.5543	-0.00351
x1 = 0.6487	0.0315
x1 = 0.7036	0.0516
x1 = 0.7649	0.0736
x1 = 0.8337	0.0987
x1 = 0.8713	0.0956
x1 = 0.9114	0.0832
x1 = 0.9542	0.0581

COC [dimethyl ether] + c1ccccc1
[1]
Conditions	excess molar enthalpy [kcal/mol]
x1 = 0.0637	-0.00798
x1 = 0.1256	-0.0153
x1 = 0.1857	-0.0226
x1 = 0.2442	-0.0287
x1 = 0.3011	-0.0337
x1 = 0.3565	-0.0382
x1 = 0.4104	-0.0421
x1 = 0.4628	-0.0449
x1 = 0.514	-0.0468
x1 = 0.5638	-0.0478
x1 = 0.6124	-0.0478
x1 = 0.6597	-0.0471
x1 = 0.7059	-0.0452
x1 = 0.751	-0.0428
x1 = 0.795	-0.0385
x1 = 0.8379	-0.0337
x1 = 0.8799	-0.0275
x1 = 0.9208	-0.0196
x1 = 0.9609	-0.0104

CCCCCCCCCCCC [dodecane]
Conditions	vapor or sublimation pressure [kPa]
[2]	0.2

C=CCCCCCC [oct-1-ene]
Conditions	vapor or sublimation pressure [kPa]
[2]	8.3

C=CCCCCCC [oct-1-ene] + COC
[1]
Conditions	excess molar enthalpy [kcal/mol]
x2 = 0.1071	0.0249
x2 = 0.2021	0.0447
x2 = 0.2868	0.0593
x2 = 0.363	0.0695
x2 = 0.4317	0.0758
x2 = 0.4941	0.0792
x2 = 0.551	0.0801
x2 = 0.6031	0.0793
x2 = 0.6509	0.077
x2 = 0.695	0.0734
x2 = 0.7358	0.0678
x2 = 0.7737	0.0622
x2 = 0.8089	0.0556
x2 = 0.8417	0.0486
x2 = 0.8724	0.0416
x2 = 0.9011	0.0334
x2 = 0.9281	0.0253
x2 = 0.9535	0.017
x2 = 0.9774	0.00842

Cc1ccccc1 [toluene]
Conditions	vapor or sublimation pressure [kPa]
[2]	12.22

O [water]
Conditions	vapor or sublimation pressure [kPa]
[2]	12.29
